Measured values as given in ChEMBL document CHEMBL1641539 (Bioorg Med Chem Lett, 2011).

How the values were obtained:
[1] = molecular target: Mitogen-activated protein kinase 10 (Homo sapiens, UniProt P53779); experiment: Inhibition of recombinant JNK3 after 60 mins by TR-FRET assay
[2] = molecular target: Calcium/calmodulin-dependent protein kinase type II subunit alpha (Homo sapiens) (UniProt Q9UQM7); experiment: Inhibition of CAMK2A at 10 uM after 60 mins by TR-FRET assay
[3] = molecular target: T1, Serine/threonine-protein kinase Chk1 (Homo sapiens) (UniProt O14757); experiment: Inhibition of CHEK1 at 10 uM after 60 mins by TR-FRET assay
T1 sequence (whole entry): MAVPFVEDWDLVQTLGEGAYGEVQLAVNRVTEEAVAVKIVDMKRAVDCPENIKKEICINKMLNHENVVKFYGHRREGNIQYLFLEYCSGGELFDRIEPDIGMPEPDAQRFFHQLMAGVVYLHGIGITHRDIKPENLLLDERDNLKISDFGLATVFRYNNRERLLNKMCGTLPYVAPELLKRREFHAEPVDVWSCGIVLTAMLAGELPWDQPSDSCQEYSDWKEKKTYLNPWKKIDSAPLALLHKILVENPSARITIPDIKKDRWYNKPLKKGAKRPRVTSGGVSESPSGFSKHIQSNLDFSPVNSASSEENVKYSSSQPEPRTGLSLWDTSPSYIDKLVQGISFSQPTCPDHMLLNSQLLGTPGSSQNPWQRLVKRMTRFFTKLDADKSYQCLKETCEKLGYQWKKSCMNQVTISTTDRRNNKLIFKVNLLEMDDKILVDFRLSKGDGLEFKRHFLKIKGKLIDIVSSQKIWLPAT

[4] = molecular target: Dual specificity protein kinase CLK1 (Homo sapiens) (UniProt P49759); experiment: Inhibition of CLK1 at 10 uM after 60 mins by TR-FRET assay
[5] = molecular target: Receptor tyrosine-protein kinase erbB-4 (Homo sapiens) (UniProt Q15303); experiment: Inhibition of ERBB4 at 10 uM after 60 mins by TR-FRET assay
[6] = molecular target: Tyrosine-protein kinase JAK1 (Homo sapiens) (UniProt P23458); experiment: Inhibition of JAK1 at 10 uM after 60 mins by TR-FRET assay
[7] = molecular target: Mitogen-activated protein kinase 1 (Homo sapiens, UniProt P28482); experiment: Inhibition of MAPK1 at 10 uM after 60 mins by TR-FRET assay
[8] = molecular target: Serine/threonine-protein kinase PAK 4 (Homo sapiens) (UniProt O96013); experiment: Inhibition of PAK4 at 10 uM after 60 mins by TR-FRET assay
[9] = molecular target: Serine/threonine-protein kinase PLK1 (Homo sapiens) (UniProt P53350); experiment: Inhibition of PLK1 at 10 uM after 60 mins by TR-FRET assay
[10] = molecular target: Serine/threonine-protein kinase PLK3 (Homo sapiens) (UniProt Q9H4B4); experiment: Inhibition of PLK3 at 10 uM after 60 mins by TR-FRET assay
[11] = molecular target: cAMP-dependent protein kinase catalytic subunit alpha (Homo sapiens) (UniProt P17612); experiment: Inhibition of PRKACA at 10 uM after 60 mins by TR-FRET assay
[12] = system: RAF proto-oncogene serine/threonine-protein kinase (Homo sapiens), P04049 [Y340D,Y341D]; experiment: Inhibition of RAF1 Y340D, Y341D mutant at 10 uM after 60 mins by TR-FRET assay
[13] = molecular target: Receptor-interacting serine/threonine-protein kinase 2 (Homo sapiens) (UniProt O43353); experiment: Inhibition of RIPK2 at 10 uM after 60 mins by TR-FRET assay
[14] = molecular target: Serine/threonine-protein kinase 16 (Homo sapiens) (UniProt O75716); experiment: Inhibition of STK16 at 10 uM after 60 mins by TR-FRET assay
[15] = molecular target: T2, Dual specificity protein kinase TTK (Homo sapiens) (UniProt P33981); experiment: Inhibition of TTK at 10 uM after 60 mins by TR-FRET assay
T2 sequence (whole entry): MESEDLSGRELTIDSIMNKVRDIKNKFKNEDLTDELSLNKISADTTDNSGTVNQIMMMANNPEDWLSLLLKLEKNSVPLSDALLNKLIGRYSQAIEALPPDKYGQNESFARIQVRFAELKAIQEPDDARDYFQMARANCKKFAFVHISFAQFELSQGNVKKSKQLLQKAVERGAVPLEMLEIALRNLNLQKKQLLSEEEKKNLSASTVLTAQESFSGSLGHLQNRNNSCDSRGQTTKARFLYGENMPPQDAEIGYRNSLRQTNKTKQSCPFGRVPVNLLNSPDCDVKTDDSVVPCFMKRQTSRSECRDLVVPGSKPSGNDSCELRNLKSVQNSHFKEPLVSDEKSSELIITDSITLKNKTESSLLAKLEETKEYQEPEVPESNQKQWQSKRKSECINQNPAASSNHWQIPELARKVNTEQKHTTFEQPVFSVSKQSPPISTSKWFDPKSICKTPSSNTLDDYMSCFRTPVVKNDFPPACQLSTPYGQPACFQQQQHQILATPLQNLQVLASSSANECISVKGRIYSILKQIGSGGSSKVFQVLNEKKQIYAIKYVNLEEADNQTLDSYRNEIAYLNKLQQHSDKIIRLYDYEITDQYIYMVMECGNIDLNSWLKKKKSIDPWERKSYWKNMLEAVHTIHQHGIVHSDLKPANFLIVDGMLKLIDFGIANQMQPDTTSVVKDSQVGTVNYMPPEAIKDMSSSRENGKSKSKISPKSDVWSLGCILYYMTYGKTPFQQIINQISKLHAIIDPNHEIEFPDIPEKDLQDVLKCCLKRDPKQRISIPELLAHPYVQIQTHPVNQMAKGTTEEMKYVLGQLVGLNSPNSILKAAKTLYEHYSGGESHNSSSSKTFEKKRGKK

[16] = molecular target: Mitogen-activated protein kinase 8 (Homo sapiens, UniProt P45983); experiment: Inhibition of recombinant JNK1 after 60 mins by TR-FRET assay
[17] = Neuroprotective activity in human cortical neurons assessed as inhibition of amyloid-beta-induced toxicity after 2 to 3 days; type: functional; conditions: cortical neurone
[18] = Apparent permeability of the compound from apical to basolateral direction in MDCK2 cells at 5 uM after 120 mins; type: ADME, cell-based, Canis lupus familiaris, MDCK-II; conditions: dog, MDCK
[19] = Efflux ratio, ratio of permeability from apical to basolateral in MDCK2 cells over expressing MDR1 in presence of P-gp inhibitor to permeability from apical to basolateral in MDCK2 cells over expressing MDR1 in absence of P-gp inhibitor at 5 uM after 120 mins; type: ADME, cell-based, Canis lupus familiaris; conditions: dog, mdck-ii, 2 h
[20] = Oxidative metabolic stability in mouse liver microsomes assessed as compound remaining at 2 uM after 30 mins; type: ADME, Microsome; conditions: read-out: Stability
[21] = Oxidative metabolic stability in human liver microsomes assessed as compound remaining at 2 uM after 30 mins; type: ADME, Microsome; conditions: read-out: Stability
[22] = system: Proto-oncogene tyrosine-protein kinase receptor Ret (Homo sapiens), P07949 [V804M]; experiment: Inhibition of human Ret V804M mutant at 10 uM after 60 mins by TR-FRET assay; values are per cent of control

Chain of RAF proto-oncogene serine/threonine-protein kinase (Homo sapiens), P04049 [Y340D,Y341D] (P04049 whole entry Y340D/Y341D): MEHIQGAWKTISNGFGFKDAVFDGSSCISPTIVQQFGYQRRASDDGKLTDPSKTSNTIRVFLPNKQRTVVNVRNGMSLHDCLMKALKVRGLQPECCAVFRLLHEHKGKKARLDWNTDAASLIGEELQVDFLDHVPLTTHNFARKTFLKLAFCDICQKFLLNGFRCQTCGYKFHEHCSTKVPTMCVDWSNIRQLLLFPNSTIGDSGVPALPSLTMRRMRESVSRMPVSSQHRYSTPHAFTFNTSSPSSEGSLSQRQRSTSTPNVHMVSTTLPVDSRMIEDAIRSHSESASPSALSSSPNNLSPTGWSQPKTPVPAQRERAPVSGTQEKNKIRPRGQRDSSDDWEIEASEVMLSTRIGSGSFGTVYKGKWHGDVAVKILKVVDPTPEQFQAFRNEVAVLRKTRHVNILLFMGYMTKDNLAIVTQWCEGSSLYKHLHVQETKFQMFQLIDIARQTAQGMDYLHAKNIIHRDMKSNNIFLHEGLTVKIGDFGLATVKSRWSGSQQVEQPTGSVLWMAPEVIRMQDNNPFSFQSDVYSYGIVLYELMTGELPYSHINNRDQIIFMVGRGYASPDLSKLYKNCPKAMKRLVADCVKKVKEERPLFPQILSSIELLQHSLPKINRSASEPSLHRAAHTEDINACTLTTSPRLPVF
Chain of Serine/threonine-protein kinase PLK1 (Homo sapiens) (P53350 whole entry): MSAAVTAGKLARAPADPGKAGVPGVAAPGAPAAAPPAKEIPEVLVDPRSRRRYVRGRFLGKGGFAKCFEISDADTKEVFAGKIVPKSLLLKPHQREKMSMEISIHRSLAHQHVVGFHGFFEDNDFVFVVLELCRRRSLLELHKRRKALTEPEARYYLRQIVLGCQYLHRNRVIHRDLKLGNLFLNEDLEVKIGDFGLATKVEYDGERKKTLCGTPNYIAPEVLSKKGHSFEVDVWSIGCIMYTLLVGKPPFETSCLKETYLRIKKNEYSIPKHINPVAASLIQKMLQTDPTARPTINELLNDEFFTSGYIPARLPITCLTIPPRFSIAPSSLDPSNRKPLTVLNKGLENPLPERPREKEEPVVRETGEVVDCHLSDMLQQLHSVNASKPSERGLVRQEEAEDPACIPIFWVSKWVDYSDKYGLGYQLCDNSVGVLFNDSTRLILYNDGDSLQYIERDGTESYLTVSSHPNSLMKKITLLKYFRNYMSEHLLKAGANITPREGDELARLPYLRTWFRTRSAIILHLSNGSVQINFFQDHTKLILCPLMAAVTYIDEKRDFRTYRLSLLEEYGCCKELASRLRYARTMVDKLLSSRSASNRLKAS
Chain of Serine/threonine-protein kinase PAK 4 (Homo sapiens) (O96013 whole entry, looked up): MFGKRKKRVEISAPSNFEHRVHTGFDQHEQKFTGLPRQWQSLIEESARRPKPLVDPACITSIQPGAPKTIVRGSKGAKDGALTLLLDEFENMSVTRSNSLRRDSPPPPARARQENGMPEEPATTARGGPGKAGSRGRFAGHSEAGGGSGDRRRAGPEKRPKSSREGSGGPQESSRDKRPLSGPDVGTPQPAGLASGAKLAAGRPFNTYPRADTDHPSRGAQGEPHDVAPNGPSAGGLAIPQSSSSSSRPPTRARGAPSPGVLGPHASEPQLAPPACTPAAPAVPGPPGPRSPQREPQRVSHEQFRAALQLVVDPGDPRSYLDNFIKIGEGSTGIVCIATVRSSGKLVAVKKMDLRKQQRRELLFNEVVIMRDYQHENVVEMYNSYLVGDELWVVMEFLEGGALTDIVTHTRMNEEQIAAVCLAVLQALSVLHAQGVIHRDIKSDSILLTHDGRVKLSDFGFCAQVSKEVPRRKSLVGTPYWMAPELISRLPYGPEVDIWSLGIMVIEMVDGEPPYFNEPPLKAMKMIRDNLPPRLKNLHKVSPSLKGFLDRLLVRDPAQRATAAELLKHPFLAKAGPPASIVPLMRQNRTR
Chain of Mitogen-activated protein kinase 1 (P28482 whole entry): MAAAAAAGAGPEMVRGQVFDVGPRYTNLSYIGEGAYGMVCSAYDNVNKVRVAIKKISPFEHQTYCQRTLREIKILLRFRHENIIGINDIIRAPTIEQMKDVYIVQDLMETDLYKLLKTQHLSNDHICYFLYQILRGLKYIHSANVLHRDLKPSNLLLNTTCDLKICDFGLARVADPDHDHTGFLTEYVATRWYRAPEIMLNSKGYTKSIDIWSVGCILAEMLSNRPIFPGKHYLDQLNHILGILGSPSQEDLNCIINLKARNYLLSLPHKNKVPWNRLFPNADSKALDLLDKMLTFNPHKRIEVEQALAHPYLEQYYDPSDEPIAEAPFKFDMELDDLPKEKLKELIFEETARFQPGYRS
Chain of Serine/threonine-protein kinase 16 (Homo sapiens) (O75716 whole entry): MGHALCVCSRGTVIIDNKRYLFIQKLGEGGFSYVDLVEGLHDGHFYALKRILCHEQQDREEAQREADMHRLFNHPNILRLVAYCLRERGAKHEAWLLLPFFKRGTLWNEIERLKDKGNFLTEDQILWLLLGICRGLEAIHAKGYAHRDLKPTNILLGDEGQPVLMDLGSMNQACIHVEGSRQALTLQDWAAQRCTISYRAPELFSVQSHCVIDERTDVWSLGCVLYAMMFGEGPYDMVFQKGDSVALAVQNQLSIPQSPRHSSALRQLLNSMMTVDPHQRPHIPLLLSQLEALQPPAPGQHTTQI
Chain of Receptor tyrosine-protein kinase erbB-4 (Homo sapiens) (Q15303 whole entry): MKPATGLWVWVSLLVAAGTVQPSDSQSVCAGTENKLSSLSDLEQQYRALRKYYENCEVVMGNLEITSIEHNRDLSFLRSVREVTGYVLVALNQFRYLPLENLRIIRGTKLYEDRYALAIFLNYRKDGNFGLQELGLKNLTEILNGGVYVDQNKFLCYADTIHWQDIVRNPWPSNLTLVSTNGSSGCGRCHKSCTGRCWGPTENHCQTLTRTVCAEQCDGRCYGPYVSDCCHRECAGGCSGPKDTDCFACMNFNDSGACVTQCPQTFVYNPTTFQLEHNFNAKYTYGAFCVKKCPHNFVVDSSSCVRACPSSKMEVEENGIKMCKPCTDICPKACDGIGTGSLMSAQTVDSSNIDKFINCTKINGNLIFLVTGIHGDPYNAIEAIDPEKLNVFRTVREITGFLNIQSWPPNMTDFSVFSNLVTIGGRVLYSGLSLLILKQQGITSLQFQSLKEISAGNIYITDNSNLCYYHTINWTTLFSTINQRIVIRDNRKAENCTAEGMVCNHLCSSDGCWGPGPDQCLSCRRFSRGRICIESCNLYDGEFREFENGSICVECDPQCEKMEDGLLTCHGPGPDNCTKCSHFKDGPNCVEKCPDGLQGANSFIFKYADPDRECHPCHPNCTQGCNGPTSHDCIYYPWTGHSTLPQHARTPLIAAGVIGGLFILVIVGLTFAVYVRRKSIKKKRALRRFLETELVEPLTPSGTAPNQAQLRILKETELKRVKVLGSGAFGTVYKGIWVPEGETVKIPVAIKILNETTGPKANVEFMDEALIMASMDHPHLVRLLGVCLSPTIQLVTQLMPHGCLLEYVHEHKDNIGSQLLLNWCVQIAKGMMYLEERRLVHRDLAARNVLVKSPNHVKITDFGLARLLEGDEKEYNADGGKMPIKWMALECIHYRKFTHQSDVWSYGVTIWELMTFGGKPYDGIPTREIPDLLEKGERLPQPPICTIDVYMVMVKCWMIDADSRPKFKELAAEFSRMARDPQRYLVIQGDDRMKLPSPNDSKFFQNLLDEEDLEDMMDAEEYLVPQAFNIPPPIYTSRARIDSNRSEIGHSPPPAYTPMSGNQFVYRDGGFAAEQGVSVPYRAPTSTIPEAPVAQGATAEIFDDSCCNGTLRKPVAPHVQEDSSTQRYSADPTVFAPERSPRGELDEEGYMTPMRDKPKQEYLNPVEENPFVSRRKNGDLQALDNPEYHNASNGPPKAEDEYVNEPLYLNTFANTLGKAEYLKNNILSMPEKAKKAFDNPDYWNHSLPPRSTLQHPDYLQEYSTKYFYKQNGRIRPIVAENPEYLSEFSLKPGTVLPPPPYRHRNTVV
Chain of Dual specificity protein kinase CLK1 (Homo sapiens) (P49759 whole entry, looked up): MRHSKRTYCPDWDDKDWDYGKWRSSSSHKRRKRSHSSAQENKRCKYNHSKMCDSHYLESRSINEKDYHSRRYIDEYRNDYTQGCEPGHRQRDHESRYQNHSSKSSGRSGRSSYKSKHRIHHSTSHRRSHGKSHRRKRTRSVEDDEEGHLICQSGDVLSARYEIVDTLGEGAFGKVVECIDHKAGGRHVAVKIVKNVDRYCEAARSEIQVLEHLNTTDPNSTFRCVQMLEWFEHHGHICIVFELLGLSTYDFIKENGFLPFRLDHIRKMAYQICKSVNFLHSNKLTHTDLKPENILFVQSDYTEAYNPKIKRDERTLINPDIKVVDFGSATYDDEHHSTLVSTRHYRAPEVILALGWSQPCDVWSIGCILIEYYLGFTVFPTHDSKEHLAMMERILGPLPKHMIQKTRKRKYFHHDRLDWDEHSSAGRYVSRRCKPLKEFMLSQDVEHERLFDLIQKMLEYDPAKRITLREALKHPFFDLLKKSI
Chain of Serine/threonine-protein kinase PLK3 (Homo sapiens) (Q9H4B4 whole entry, looked up): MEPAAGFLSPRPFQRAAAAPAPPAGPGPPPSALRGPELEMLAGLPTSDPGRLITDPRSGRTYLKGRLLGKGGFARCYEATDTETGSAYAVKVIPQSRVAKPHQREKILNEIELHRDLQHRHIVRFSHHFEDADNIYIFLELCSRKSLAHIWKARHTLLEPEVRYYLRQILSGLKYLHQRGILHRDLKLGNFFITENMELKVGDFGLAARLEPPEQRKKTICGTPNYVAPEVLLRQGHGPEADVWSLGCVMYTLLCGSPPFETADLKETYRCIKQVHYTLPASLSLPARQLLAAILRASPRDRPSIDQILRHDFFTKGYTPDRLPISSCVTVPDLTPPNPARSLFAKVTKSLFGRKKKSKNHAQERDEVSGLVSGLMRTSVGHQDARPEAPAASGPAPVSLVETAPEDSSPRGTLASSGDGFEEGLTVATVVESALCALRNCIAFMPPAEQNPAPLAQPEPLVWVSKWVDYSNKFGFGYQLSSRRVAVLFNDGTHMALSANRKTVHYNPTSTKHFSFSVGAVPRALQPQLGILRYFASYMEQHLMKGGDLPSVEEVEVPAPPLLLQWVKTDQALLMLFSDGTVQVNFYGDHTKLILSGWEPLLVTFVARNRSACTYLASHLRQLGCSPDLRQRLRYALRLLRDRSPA

Row | Structure (SMILES) | IC50 [1] | inhibition [2] | inhibition [3] | inhibition [4] | inhibition [5] | inhibition [6] | inhibition [7] | inhibition [8] | inhibition [9] | inhibition [10] | inhibition [11] | inhibition [12] | inhibition [13] | inhibition [14] | inhibition [15] | IC50 [16] | Papp A→B at 2 h, 5 µM [18] | Ratio [19] | remaining at 0.5 h, 2 µM [20] | remaining at 0.5 h, 2 µM [21] | further results
1 | O=c1[nH]nc(-c2ccnc(NC3CCCCC3)c2)n1-c1ccc2ccccc2c1 | 24 nM | 22% | -5% | 7% | 2% | 1% | 1% | -2% | 12% | 17% | 3% | 13% | 6% | -1% | 10% | 1000 nM | 0.9 ×10⁻⁶ cm/s | 2.6 | 2.6% | 57% | EC50 [17]: > 50000 nM
2 | O=c1[nH]nc(-c2ccnc(NC3CCOCC3)c2)n1-c1ccc2ccccc2c1 | 85 nM | 11% | – | 6% | 3% | -3% | 5% | – | 19% | 13% | 6% | 16% | 6% | 38% | 44% | 1800 nM | 15.7 ×10⁻⁶ cm/s | 12 | 12% | 73% | –
3 | O=c1n(Cc2ccccn2)nc(-c2ccnc(NC3CCOCC3)c2)n1-c1ccc2ccccc2c1 | 54 nM | 8% | -9% | 2% | -3% | – | -1% | – | 10% | 5% | 2% | 0% | 1% | -9% | 0% | 990 nM | 18.5 ×10⁻⁶ cm/s | 1.4 | 1.4% | 40% | –
4 | S=c1[nH]nc(-c2ccncc2)n1-c1ccc2ccccc2c1 | – | – | – | – | – | – | – | – | – | – | – | – | – | – | – | – | – | – | – | – | residual activity [22]: 116%
5 | O=c1[nH]nc(-c2ccnc(NC3CCCOC3)c2)n1-c1ccc2ccccc2c1 (stereo unspecified) | 32 nM | 38% | -9% | 22% | 16% | 1% | 1% | 69% | 27% | 79% | 47% | 0% | 1% | 21% | 30% | 740 nM | – | – | – | – | –
6 | O=c1n(C2CCOCC2)nc(-c2ccnc(NC3CCCCC3)c2)n1-c1ccc2ccccc2c1 | – | 19% | -4% | 4% | 3% | 1% | -1% | 27% | 5% | 32% | 13% | -3% | 13% | – | 3% | 420 nM | – | – | – | – | –
7 | O=c1n(Cc2ccncc2)nc(-c2ccnc(NC3CCCCC3)c2)n1-c1ccc2ccccc2c1 | 29 nM | 2% | -9% | 3% | -3% | -4% | 5% | -1% | 2% | -5% | 6% | -2% | 8% | – | – | 700 nM | 8.1 ×10⁻⁶ cm/s | – | 48% | 2% | EC50 [17]: 12000 nM
